Columns and labels:
[1] = biological target: Sodium-dependent noradrenaline transporter (Homo sapiens) (UniProt P23975); conditions: Compound concentration 10.0 uM
[2] = biological target: Alpha-1D adrenergic receptor (Homo sapiens) (UniProt P25100); conditions: Compound concentration 10.0 uM
[3] = biological target: Tyrosine-protein kinase Fes/Fps (Homo sapiens) (UniProt P07332); conditions: Compound concentration 1.0 uM
[4] = biological target: Serine/threonine-protein kinase PAK 5 (Homo sapiens) (UniProt Q9P286); conditions: Compound concentration 1.0 uM
[5] = biological target: Rho-associated protein kinase 2 (Homo sapiens) (UniProt O75116); conditions: Compound concentration 1.0 uM
[6] = biological target: T1, Serine/threonine-protein kinase BRSK1 (Homo sapiens) (UniProt Q8TDC3); conditions: Compound concentration 1.0 uM
T1 sequence (whole entry): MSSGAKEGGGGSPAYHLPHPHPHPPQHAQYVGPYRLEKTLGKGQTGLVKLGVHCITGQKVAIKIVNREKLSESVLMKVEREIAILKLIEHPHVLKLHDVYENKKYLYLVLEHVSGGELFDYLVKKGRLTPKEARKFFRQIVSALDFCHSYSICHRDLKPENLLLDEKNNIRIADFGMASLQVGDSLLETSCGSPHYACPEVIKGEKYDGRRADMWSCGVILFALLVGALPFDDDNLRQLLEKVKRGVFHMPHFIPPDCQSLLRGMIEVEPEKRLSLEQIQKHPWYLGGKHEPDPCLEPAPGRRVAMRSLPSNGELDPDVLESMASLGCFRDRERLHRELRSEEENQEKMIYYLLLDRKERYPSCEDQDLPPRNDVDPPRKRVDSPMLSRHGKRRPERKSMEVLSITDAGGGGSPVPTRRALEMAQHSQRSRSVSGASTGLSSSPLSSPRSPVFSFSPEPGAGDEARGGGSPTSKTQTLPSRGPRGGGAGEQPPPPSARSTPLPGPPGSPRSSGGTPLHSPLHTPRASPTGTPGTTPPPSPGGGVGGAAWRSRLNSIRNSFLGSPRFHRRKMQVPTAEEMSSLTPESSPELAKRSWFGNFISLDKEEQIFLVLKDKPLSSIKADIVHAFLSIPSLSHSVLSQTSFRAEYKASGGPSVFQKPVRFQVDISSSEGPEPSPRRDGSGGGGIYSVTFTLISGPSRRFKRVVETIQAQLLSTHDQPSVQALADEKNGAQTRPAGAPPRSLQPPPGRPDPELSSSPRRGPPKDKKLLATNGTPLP

[7] = biological target: Protein kinase C beta type (Homo sapiens) (UniProt P05771); conditions: Compound concentration 1.0 uM
[8] = biological target: T2, Activin receptor type-1B (Homo sapiens) (UniProt P36896); conditions: Compound concentration 1.0 uM
T2 sequence (whole entry): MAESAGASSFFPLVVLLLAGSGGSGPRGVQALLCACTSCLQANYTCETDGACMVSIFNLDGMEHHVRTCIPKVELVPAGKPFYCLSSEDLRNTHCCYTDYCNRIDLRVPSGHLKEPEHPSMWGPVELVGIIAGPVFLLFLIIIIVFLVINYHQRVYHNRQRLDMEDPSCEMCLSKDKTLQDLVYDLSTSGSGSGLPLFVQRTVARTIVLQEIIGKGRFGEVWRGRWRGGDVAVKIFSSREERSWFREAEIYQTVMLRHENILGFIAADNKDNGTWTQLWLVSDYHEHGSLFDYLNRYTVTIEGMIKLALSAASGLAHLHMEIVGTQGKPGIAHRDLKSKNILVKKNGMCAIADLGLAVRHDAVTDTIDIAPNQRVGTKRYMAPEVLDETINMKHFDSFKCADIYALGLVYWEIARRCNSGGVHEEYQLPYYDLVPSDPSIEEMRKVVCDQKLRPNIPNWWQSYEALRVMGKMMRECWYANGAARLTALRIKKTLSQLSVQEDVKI

[9] = biological target: Mitogen-activated protein kinase kinase kinase kinase 4 (Homo sapiens) (UniProt O95819); conditions: Compound concentration 1.0 uM
[10] = biological target: Ephrin type-A receptor 4 (Homo sapiens) (UniProt P54764); conditions: Compound concentration 1.0 uM
[11] = biological target: Cyclin-dependent kinase 2/cyclin A (Homo sapiens) (UniProt P24941+P20248+P78396); conditions: Compound concentration 1.0 uM
[12] = biological target: ATR/ATRIP (Homo sapiens) (UniProt Q13535+Q8WXE1); conditions: Compound concentration 1.0 uM
[13] = biological target: Serine/threonine-protein kinase 24 (Homo sapiens) (UniProt Q9Y6E0); conditions: Compound concentration 1.0 uM
[14] = biological target: T3, Serine/threonine-protein kinase Sgk1 (Homo sapiens) (UniProt O00141); conditions: Compound concentration 1.0 uM
T3 sequence (whole entry): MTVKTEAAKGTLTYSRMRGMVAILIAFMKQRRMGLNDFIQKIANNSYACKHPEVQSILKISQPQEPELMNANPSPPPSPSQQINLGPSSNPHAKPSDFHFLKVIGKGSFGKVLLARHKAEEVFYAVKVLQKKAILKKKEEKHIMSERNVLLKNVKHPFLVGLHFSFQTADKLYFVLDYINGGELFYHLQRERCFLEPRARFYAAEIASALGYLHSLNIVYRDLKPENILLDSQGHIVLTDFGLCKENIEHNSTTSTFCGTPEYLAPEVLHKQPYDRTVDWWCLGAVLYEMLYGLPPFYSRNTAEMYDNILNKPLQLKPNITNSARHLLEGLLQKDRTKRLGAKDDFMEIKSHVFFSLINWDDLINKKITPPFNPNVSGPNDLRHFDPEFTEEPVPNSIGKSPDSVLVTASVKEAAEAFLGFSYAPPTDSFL

[15] = biological target: Sodium-dependent serotonin transporter (Homo sapiens) (UniProt P31645); conditions: Compound concentration 10.0 uM
[16] = biological target: Serine/threonine-protein kinase PAK 4 (Homo sapiens) (UniProt O96013); conditions: Compound concentration 1.0 uM
Sequence of Serine/threonine-protein kinase PAK 4 (Homo sapiens) (O96013 whole entry, looked up): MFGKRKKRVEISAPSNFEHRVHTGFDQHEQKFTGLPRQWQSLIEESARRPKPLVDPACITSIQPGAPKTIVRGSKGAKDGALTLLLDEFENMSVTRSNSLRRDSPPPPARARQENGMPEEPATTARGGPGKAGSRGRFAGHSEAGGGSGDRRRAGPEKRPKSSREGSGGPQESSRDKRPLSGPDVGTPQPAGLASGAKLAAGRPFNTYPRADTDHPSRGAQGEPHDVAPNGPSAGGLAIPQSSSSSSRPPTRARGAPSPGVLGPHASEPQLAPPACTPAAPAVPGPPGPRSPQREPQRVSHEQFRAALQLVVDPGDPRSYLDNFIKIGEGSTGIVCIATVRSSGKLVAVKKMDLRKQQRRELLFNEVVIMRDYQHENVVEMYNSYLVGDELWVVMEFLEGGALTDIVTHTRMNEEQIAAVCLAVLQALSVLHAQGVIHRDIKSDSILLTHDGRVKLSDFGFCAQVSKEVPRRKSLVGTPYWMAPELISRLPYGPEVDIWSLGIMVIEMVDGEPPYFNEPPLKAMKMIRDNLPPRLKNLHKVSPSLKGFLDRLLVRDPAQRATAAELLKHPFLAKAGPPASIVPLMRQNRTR

Sequence of Mitogen-activated protein kinase kinase kinase kinase 4 (Homo sapiens) (O95819 2-1239 limits assumed): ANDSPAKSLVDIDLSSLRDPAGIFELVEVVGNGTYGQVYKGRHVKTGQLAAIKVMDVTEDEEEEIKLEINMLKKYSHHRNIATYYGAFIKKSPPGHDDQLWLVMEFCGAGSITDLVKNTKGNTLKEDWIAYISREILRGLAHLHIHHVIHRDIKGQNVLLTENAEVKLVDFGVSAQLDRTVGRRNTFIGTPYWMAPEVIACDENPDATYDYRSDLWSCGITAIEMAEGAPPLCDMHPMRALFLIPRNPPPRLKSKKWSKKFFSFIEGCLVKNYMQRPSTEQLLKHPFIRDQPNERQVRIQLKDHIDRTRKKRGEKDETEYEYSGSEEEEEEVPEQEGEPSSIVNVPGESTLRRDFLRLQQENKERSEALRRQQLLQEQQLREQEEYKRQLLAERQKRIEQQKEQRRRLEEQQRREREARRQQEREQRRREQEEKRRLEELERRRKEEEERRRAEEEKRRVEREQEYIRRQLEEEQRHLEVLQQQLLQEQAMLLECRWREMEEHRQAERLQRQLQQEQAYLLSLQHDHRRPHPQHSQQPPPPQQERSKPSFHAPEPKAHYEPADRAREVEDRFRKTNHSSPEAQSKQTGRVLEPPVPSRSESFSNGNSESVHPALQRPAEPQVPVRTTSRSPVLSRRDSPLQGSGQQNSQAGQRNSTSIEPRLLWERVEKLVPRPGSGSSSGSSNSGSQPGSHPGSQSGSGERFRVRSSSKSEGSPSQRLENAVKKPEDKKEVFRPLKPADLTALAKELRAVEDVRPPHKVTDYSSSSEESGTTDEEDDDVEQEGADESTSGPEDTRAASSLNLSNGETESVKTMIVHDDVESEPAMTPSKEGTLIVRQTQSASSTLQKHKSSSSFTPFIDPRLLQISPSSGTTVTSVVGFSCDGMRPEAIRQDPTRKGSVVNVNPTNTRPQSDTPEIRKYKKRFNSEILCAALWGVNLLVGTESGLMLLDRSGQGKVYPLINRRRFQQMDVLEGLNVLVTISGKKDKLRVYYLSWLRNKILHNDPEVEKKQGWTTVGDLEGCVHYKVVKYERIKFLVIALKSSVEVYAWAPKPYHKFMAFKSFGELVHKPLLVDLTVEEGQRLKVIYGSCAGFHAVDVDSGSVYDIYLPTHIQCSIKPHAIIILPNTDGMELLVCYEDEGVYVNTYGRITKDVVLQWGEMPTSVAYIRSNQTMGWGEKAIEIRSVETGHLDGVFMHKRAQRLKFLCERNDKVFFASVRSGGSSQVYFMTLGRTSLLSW
Sequence of Tyrosine-protein kinase Fes/Fps (Homo sapiens) (P07332 whole entry): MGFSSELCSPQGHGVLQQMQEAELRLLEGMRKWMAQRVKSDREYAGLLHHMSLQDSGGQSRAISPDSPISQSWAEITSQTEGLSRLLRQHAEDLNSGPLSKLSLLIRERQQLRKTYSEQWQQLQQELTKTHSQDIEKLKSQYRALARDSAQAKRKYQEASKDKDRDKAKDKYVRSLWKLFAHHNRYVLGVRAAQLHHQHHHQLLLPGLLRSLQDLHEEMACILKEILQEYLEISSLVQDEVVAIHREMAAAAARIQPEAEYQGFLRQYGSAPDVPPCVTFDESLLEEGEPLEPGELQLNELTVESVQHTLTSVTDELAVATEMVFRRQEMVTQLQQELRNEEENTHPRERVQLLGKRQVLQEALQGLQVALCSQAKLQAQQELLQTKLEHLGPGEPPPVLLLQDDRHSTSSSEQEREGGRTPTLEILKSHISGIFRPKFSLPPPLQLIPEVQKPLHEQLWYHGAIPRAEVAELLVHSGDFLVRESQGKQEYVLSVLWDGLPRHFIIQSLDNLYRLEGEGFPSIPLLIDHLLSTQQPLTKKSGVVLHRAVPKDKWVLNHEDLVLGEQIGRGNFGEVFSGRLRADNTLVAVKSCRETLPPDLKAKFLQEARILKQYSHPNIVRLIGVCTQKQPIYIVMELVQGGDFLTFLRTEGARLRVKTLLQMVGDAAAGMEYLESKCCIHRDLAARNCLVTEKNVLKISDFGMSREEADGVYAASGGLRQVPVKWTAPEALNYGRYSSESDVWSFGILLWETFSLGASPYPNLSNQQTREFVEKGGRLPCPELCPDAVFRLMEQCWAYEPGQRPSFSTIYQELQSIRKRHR
Sequence of Sodium-dependent serotonin transporter (Homo sapiens) (P31645 whole entry, looked up): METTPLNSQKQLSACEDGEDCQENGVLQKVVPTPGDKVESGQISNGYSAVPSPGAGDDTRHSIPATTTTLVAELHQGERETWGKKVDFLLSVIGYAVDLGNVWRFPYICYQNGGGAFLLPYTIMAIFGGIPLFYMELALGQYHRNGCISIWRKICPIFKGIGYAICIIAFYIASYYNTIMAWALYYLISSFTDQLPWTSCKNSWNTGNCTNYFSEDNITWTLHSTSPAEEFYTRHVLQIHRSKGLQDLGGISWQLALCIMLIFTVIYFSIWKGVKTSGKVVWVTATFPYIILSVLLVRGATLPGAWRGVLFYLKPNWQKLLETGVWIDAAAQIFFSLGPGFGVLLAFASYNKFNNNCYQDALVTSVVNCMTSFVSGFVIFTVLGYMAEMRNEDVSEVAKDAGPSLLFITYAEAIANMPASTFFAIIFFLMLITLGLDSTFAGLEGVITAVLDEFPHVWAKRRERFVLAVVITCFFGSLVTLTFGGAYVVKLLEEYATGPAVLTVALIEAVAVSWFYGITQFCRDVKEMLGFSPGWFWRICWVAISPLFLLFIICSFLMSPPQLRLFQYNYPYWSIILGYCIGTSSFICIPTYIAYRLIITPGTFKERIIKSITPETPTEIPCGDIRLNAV
Sequence of Alpha-1D adrenergic receptor (Homo sapiens) (P25100 whole entry): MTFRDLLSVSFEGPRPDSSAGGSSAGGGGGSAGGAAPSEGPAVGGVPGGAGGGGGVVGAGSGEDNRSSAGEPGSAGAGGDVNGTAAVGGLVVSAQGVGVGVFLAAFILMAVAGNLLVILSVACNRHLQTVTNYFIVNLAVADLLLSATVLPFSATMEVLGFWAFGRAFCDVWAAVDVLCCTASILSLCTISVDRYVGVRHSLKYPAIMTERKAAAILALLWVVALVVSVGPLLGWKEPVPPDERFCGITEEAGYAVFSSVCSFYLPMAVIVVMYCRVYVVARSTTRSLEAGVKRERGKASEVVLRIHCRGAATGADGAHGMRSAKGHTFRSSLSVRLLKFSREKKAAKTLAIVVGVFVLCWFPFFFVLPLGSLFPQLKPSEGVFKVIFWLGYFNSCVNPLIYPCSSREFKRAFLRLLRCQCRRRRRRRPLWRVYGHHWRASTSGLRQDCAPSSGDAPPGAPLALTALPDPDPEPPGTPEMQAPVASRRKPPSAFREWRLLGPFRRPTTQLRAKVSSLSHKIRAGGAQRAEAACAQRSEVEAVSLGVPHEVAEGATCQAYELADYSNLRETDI
Sequence of Serine/threonine-protein kinase PAK 5 (Homo sapiens) (Q9P286 whole entry, looked up): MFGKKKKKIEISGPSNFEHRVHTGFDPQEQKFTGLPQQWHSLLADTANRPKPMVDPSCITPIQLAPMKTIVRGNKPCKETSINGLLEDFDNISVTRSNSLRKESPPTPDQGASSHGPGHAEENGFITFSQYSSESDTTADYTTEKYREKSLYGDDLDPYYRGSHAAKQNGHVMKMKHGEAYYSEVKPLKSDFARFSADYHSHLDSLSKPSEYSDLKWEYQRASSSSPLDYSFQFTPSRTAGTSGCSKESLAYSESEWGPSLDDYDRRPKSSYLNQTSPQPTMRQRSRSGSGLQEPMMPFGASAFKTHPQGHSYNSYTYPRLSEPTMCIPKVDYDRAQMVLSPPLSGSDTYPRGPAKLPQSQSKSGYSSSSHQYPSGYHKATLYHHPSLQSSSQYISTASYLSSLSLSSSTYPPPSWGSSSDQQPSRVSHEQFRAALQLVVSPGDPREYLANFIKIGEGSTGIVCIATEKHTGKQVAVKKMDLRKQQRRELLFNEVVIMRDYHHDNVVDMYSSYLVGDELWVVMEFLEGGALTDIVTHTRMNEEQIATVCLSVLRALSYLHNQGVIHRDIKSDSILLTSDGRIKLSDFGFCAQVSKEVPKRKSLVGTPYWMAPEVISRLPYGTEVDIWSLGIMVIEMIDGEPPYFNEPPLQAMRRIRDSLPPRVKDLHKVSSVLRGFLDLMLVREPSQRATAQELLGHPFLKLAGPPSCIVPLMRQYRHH
Sequence of Serine/threonine-protein kinase 24 (Homo sapiens) (Q9Y6E0 whole entry, looked up): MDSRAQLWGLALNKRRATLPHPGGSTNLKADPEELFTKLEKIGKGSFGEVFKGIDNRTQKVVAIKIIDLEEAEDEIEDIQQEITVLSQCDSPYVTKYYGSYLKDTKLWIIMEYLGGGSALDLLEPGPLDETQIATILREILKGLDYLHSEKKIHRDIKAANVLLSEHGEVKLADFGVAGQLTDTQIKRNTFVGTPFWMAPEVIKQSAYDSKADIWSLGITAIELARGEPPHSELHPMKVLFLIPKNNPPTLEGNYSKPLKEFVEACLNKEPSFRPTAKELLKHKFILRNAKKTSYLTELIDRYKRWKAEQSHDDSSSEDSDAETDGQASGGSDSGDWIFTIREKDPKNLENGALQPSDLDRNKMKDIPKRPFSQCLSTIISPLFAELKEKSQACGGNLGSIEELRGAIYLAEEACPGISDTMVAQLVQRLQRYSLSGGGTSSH

Cc1nc(C2CCN(C(=O)c3ccc(OC(F)(F)F)cc3N)CC2)c2ncc(N3CCN(C)CC3)cc2n1 [BAY-693]
inactive: inhibition [1] 24.6% | inhibition [2] 5.29%

CN1CCN(c2cnc3c(C4CCN(C(=O)c5ccc(OC(F)(F)F)cc5N)CC4)ncnc3c2)CC1 [BAY-885]
inactive: % residual kinase activity [3] 108% | % residual kinase activity [4] 115% | % residual kinase activity [5] 91% | % residual kinase activity [6] 104% | % residual kinase activity [7] 112% | % residual kinase activity [8] 98% | % residual kinase activity [9] 99% | % residual kinase activity [10] 82% | % residual kinase activity [11] 105% | % residual kinase activity [12] 100% | % residual kinase activity [13] 99% | % residual kinase activity [14] 113% | inhibition [15] 32.4% | % residual kinase activity [16] 101%
